{"source": "patent US7202280B2", "about": "“Methods for the treatment and prevention of pancreatitis and for induction of liver regeneration” (priority 2002, dated 2007)", "key": {"SSAT": {"system": "SSAT", "test": "Hepatic, pancreatic and renal SSAT activity in syngenic and metallothionein-SSAT mice after analogue", "assay_type": "in vivo, mouse", "conditions": "24 h before sacrifice", "protocol": "(§1) α-methylspermidine, Bis-α-methylspermine and α-methylspermine were administered in saline. […] The data are expressed as means ±S.D. For statistical analysis, the two-tailed Student's t test was used."}, "[1]": {"system": "syngenic and metallothionein-SSAT mice", "test": "Hepatic, pancreatic and renal polyamine concentration in syngenic and metallothionein-SSAT mice after analogue", "assay_type": "in vivo, mouse", "conditions": "Sg (syngenic) mice, 24 h before sacrifice", "protocol": "as §1"}, "[2]": {"conditions": "Tg (transgenic) mice, 12.5 mg/kg"}, "[3]": {"conditions": "Tg (transgenic) mice, 37.5 mg/kg"}}, "data": [{"smiles": "CC(N)CCNCCCCNCCCN", "note": "(stereo not drawn) [α-methylspermine, 1-methylspermine]", "values": [{"measurement": "SSAT activity, Kidney", "setting": "SSAT; Sg (syngenic) mice, 12.5 mg/kg", "result": "3.65 ± 2.39 ^+ pmoles/10 min/ tissue wet weight"}, {"measurement": "SSAT activity, Liver", "setting": "SSAT; Sg (syngenic) mice, 12.5 mg/kg", "result": "0.47 pmoles/10 min/ tissue wet weight"}, {"measurement": "SSAT activity, Pancreas", "setting": "SSAT; Sg (syngenic) mice, 12.5 mg/kg", "result": "2.03 pmoles/10 min/ tissue wet weight"}, {"measurement": "SSAT activity, Kidney", "setting": "SSAT; Sg (syngenic) mice, 25 mg/kg", "result": "2.76 ± 2.52 pmoles/10 min/ tissue wet weight"}, {"measurement": "SSAT activity, Liver", "setting": "SSAT; Sg (syngenic) mice, 25 mg/kg", "result": "0.26 pmoles/10 min/ tissue wet weight"}, {"measurement": "SSAT activity, Pancreas", "setting": "SSAT; Sg (syngenic) mice, 25 mg/kg", "result": "1.72 pmoles/10 min/ tissue wet weight"}, {"measurement": "SSAT activity, Kidney", "setting": "SSAT; Sg (syngenic) mice, 37.5 mg/kg", "result": "4.29 ± 2.38 pmoles/10 min/ tissue wet weight"}, {"measurement": "SSAT activity, Liver", "setting": "SSAT; Sg (syngenic) mice, 37.5 mg/kg", "result": "0.75 pmoles/10 min/ tissue wet weight"}, {"measurement": "SSAT activity, Pancreas", "setting": "SSAT; Sg (syngenic) mice, 37.5 mg/kg", "result": "1.46 pmoles/10 min/ tissue wet weight"}, {"measurement": "SSAT activity, Kidney", "setting": "SSAT; Sg (syngenic) mice, 50 mg/kg", "result": "3.20 ± 2.40 pmoles/10 min/ tissue wet weight"}, {"measurement": "SSAT activity, Liver", "setting": "SSAT; Sg (syngenic) mice, 50 mg/kg", "result": "0.52 pmoles/10 min/ tissue wet weight"}, {"measurement": "SSAT activity, Pancreas", "setting": "SSAT; Sg (syngenic) mice, 50 mg/kg", "result": "2.23 pmoles/10 min/ tissue wet weight"}, {"measurement": "SSAT activity, Kidney", "setting": "SSAT; [2]", "result": "5.86 ± 1.91 pmoles/10 min/ tissue wet weight"}, {"measurement": "SSAT activity, Liver", "setting": "SSAT; [2]", "result": "21.19 pmoles/10 min/ tissue wet weight"}, {"measurement": "SSAT activity, Pancreas", "setting": "SSAT; [2]", "result": "609.10 pmoles/10 min/ tissue wet weight"}, {"measurement": "SSAT activity, Kidney", "setting": "SSAT; Tg (transgenic) mice, 25 mg/kg", "result": "3.06 ± 2.23 pmoles/10 min/ tissue wet weight"}, {"measurement": "SSAT activity, Liver", "setting": "SSAT; Tg (transgenic) mice, 25 mg/kg", "result": "30.81 pmoles/10 min/ tissue wet weight"}, {"measurement": "SSAT activity, Pancreas", "setting": "SSAT; Tg (transgenic) mice, 25 mg/kg", "result": "561.36 pmoles/10 min/ tissue wet weight"}, {"measurement": "SSAT activity, Kidney", "setting": "SSAT; [3]", "result": "3.47 ± 2.52 pmoles/10 min/ tissue wet weight"}, {"measurement": "SSAT activity, Liver", "setting": "SSAT; [3]", "result": "24.88 pmoles/10 min/ tissue wet weight"}, {"measurement": "SSAT activity, Pancreas", "setting": "SSAT; [3]", "result": "543.84 pmoles/10 min/ tissue wet weight"}, {"measurement": "SSAT activity, Kidney", "setting": "SSAT; Tg (transgenic) mice, 50 mg/kg", "result": "2.95 ± 1.82 pmoles/10 min/ tissue wet weight"}, {"measurement": "SSAT activity, Liver", "setting": "SSAT; Tg (transgenic) mice, 50 mg/kg", "result": "39.44 pmoles/10 min/ tissue wet weight"}, {"measurement": "SSAT activity, Pancreas", "setting": "SSAT; Tg (transgenic) mice, 50 mg/kg", "result": "707.60 pmoles/10 min/ tissue wet weight"}, {"measurement": "hepatic concentration, α-Methylspermine", "setting": "[1]; 12.5 mg/kg", "result": "470.60 pmoles/mg tissue wet weight"}, {"measurement": "hepatic polyamine concentration, N^1-Acetylspermidine", "setting": "[1]; 12.5 mg/kg", "result": "37.49 pmoles/mg tissue wet weight"}, {"measurement": "hepatic polyamine concentration, Putrescine", "setting": "[1]; 12.5 mg/kg", "result": "39.46 pmoles/mg tissue wet weight"}, {"measurement": "hepatic polyamine concentration, Spermidine", "setting": "[1]; 12.5 mg/kg", "result": "669.94 pmoles/mg tissue wet weight"}, {"measurement": "hepatic polyamine concentration, Spermine", "setting": "[1]; 12.5 mg/kg", "result": "568.21 pmoles/mg tissue wet weight"}, {"measurement": "pancreatic polyamine concentration, N^1-Acetylspermidine", "setting": "[1]; 12.5 mg/kg", "result": "56.32 pmoles/mg tissue wet weight"}, {"measurement": "pancreatic polyamine concentration, N^8-Acetylspermidine", "setting": "[1]; 12.5 mg/kg", "result": "17.17 pmoles/mg tissue wet weight"}, {"measurement": "pancreatic polyamine concentration, Putrescine", "setting": "[1]; 12.5 mg/kg", "result": "80.74 pmoles/mg tissue wet weight"}, {"measurement": "pancreatic polyamine concentration, Spermidine", "setting": "[1]; 12.5 mg/kg", "result": "7952.04 pmoles/mg tissue wet weight"}, {"measurement": "pancreatic polyamine concentration, Spermine", "setting": "[1]; 12.5 mg/kg", "result": "1048.44 pmoles/mg tissue wet weight"}, {"measurement": "renal concentration, α-Methylspermine", "setting": "[1]; 12.5 mg/kg", "result": "197.48 ± 6.80 pmoles/mg tissue wet weight"}, {"measurement": "renal polyamine concentration, N^1-Acetylspermidine", "setting": "[1]; 12.5 mg/kg", "result": "46.16 pmoles/mg tissue wet weight"}, {"measurement": "renal polyamine concentration, N^8-Acetylspermidine", "setting": "[1]; 12.5 mg/kg", "result": "24.91 pmoles/mg tissue wet weight"}, {"measurement": "renal polyamine concentration, Putrescine", "setting": "[1]; 12.5 mg/kg", "result": "48.17 pmoles/mg tissue wet weight"}, {"measurement": "renal polyamine concentration, Spermidine", "setting": "[1]; 12.5 mg/kg", "result": "312.55 pmoles/mg tissue wet weight"}, {"measurement": "renal polyamine concentration, Spermine", "setting": "[1]; 12.5 mg/kg", "result": "247.41 pmoles/mg tissue wet weight"}, {"measurement": "hepatic concentration, α-Methylspermine", "setting": "[1]; 25 mg/kg", "result": "420.20 pmoles/mg tissue wet weight"}, {"measurement": "hepatic polyamine concentration, Putrescine", "setting": "[1]; 25 mg/kg", "result": "44.18 pmoles/mg tissue wet weight"}, {"measurement": "hepatic polyamine concentration, Spermidine", "setting": "[1]; 25 mg/kg", "result": "1015.51 pmoles/mg tissue wet weight"}, {"measurement": "hepatic polyamine concentration, Spermine", "setting": "[1]; 25 mg/kg", "result": "411.06 pmoles/mg tissue wet weight"}, {"measurement": "pancreatic polyamine concentration, N^1-Acetylspermidine", "setting": "[1]; 25 mg/kg", "result": "19.45 pmoles/mg tissue wet weight"}, {"measurement": "pancreatic polyamine concentration, N^8-Acetylspermidine", "setting": "[1]; 25 mg/kg", "result": "24.47 pmoles/mg tissue wet weight"}, {"measurement": "pancreatic polyamine concentration, Putrescine", "setting": "[1]; 25 mg/kg", "result": "50.98 pmoles/mg tissue wet weight"}, {"measurement": "pancreatic polyamine concentration, Spermidine", "setting": "[1]; 25 mg/kg", "result": "5421.66 pmoles/mg tissue wet weight"}, {"measurement": "pancreatic polyamine concentration, Spermine", "setting": "[1]; 25 mg/kg", "result": "729.10 pmoles/mg tissue wet weight"}, {"measurement": "renal concentration, α-Methylspermine", "setting": "[1]; 25 mg/kg", "result": "228.87 ± 6.44 pmoles/mg tissue wet weight"}, {"measurement": "renal polyamine concentration, N^1-Acetylspermidine", "setting": "[1]; 25 mg/kg", "result": "59.48 pmoles/mg tissue wet weight"}, {"measurement": "renal polyamine concentration, N^8-Acetylspermidine", "setting": "[1]; 25 mg/kg", "result": "25.80 pmoles/mg tissue wet weight"}, {"measurement": "renal polyamine concentration, Putrescine", "setting": "[1]; 25 mg/kg", "result": "122.64 pmoles/mg tissue wet weight"}, {"measurement": "renal polyamine concentration, Spermidine", "setting": "[1]; 25 mg/kg", "result": "215.41 pmoles/mg tissue wet weight"}, {"measurement": "renal polyamine concentration, Spermine", "setting": "[1]; 25 mg/kg", "result": "272.18 pmoles/mg tissue wet weight"}, {"measurement": "hepatic concentration, α-Methylspermine", "setting": "[1]; 37.5 mg/kg", "result": "510.72 pmoles/mg tissue wet weight"}, {"measurement": "hepatic polyamine concentration, Spermidine", "setting": "[1]; 37.5 mg/kg", "result": "830.89 pmoles/mg tissue wet weight"}, {"measurement": "hepatic polyamine concentration, Spermine", "setting": "[1]; 37.5 mg/kg", "result": "485.75 pmoles/mg tissue wet weight"}, {"measurement": "pancreatic polyamine concentration, Putrescine", "setting": "[1]; 37.5 mg/kg", "result": "36.15 pmoles/mg tissue wet weight"}, {"measurement": "pancreatic polyamine concentration, Spermidine", "setting": "[1]; 37.5 mg/kg", "result": "5806.20 pmoles/mg tissue wet weight"}, {"measurement": "pancreatic polyamine concentration, Spermine", "setting": "[1]; 37.5 mg/kg", "result": "804.72 pmoles/mg tissue wet weight"}, {"measurement": "renal concentration, α-Methylspermine", "setting": "[1]; 37.5 mg/kg", "result": "245.67 ± 38.85 pmoles/mg tissue wet weight"}, {"measurement": "renal polyamine concentration, N^1-Acetylspermidine", "setting": "[1]; 37.5 mg/kg", "result": "30.29 pmoles/mg tissue wet weight"}, {"measurement": "renal polyamine concentration, N^8-Acetylspermidine", "setting": "[1]; 37.5 mg/kg", "result": "24.30 pmoles/mg tissue wet weight"}, {"measurement": "renal polyamine concentration, Putrescine", "setting": "[1]; 37.5 mg/kg", "result": "59.01 pmoles/mg tissue wet weight"}, {"measurement": "renal polyamine concentration, Spermidine", "setting": "[1]; 37.5 mg/kg", "result": "244.82 pmoles/mg tissue wet weight"}, {"measurement": "renal polyamine concentration, Spermine", "setting": "[1]; 37.5 mg/kg", "result": "207.72 pmoles/mg tissue wet weight"}, {"measurement": "hepatic concentration, α-Methylspermine", "setting": "[1]; 50 mg/kg", "result": "521.41 pmoles/mg tissue wet weight"}, {"measurement": "hepatic polyamine concentration, N^1-Acetylspermidine", "setting": "[1]; 50 mg/kg", "result": "45.74 pmoles/mg tissue wet weight"}, {"measurement": "hepatic polyamine concentration, N^8-Acetylspermidine", "setting": "[1]; 50 mg/kg", "result": "15.33 pmoles/mg tissue wet weight"}, {"measurement": "hepatic polyamine concentration, Putrescine", "setting": "[1]; 50 mg/kg", "result": "22.71 pmoles/mg tissue wet weight"}, {"measurement": "hepatic polyamine concentration, Spermidine", "setting": "[1]; 50 mg/kg", "result": "780.24 pmoles/mg tissue wet weight"}, {"measurement": "hepatic polyamine concentration, Spermine", "setting": "[1]; 50 mg/kg", "result": "419.39 pmoles/mg tissue wet weight"}, {"measurement": "pancreatic polyamine concentration, N^8-Acetylspermidine", "setting": "[1]; 50 mg/kg", "result": "19.89 pmoles/mg tissue wet weight"}, {"measurement": "pancreatic polyamine concentration, Putrescine", "setting": "[1]; 50 mg/kg", "result": "107.70 pmoles/mg tissue wet weight"}, {"measurement": "pancreatic polyamine concentration, Spermidine", "setting": "[1]; 50 mg/kg", "result": "6839.92 pmoles/mg tissue wet weight"}]}]}
